Test system: EA.Hy926 cells
Test: Measurement of intracellular nitric oxide using flow-cytometry (DAF FM-DA)
Type: cell-based, human
Details: summary of the data in Table-1
Procedure: The cultured human endothelial cell line EA.Hy926 cells were procured from American Type Culture Collection ([…]) and were cultured in DMEM (Sigma) supplemented with 2 mM L-glutamine, 100 U/ml penicillin, 100 μg/ml streptomycin and 10% vol/vol FBS (Gibco, Invitrogen). Cells were cultured at 37° C. in 95% humidified air with 5% CO2. After attaining 70-80% confluence, the cells were sub-cultured by trypsinization (0.25% Tryp-EDTA, for 2-3 min). For experimental purpose, cells were seeded onto 24 well tissue culture plates (CLS3524 Sigma). […] Measurement of Intracellular Nitric Oxide Using Flow-Cytometry Experimental Flow: […] EAHy926 (5×10^5) cells were seed into 24 well tissue culture plate and allowed to adhere for 12-16 hrs. 2. After adherence, cells were treated with or without 4.41 μg/ml (10 μM) folic acid and incubated for 24 hrs in DMEM without FBS. 3. The cells in 24 well tissue culture plates were loaded with DAF FM-DA (1 μM) for 30 min, washed twice with serum free medium. 4. Subsequently, cells were stimulated with different concentration of EGCG for 30 mins and washed twice with serum free medium. 5. The stimulated cells were trypsinized with 0.25% Trypsin-EDTA and fixed with 2% PFA for 15 min. 6. The suspension of cells were acquired using flow-cytometry. A population of 10,000 cells were gated and segregated based on their relative fluorescence intensities using FACS Calibur (BD; SanDiego). The mean yield of two distinct populations was measured and compared with the respective population in untreated cells. The data on the Nitric Oxide activity is summarized in Table-1 for the various compositions which may be […] catechins (EGCG) alone at various concentrations or folic acid alone or EGCG in combination with folic acid.

Structure (SMILES)	NO activity, effect of increasing concentration or of combination (in words)
O=C(O[C@@H]1Cc2c(O)cc(O)cc2O[C@@H]1c1cc(O)c(O)c(O)c1)c1cc(O)c(O)c(O)c1 [EGCG, (−)-epigallocatechin gallate]	increases NO activity till an EGCG concentration of about 11 μg and thereafter the NO activity decreases

Same assay, conditions: with or without folic acid pretreatment 24 hrs, then EGCG stimulation 30 mins, DAF FM-DA fluorescence compared with untreated cells (1.0 = no increase over untreated sample)

Structure (SMILES)	NO activity
O=C(O[C@@H]1Cc2c(O)cc(O)cc2O[C@@H]1c1cc(O)c(O)c(O)c1)c1cc(O)c(O)c(O)c1 [Example 2, EGCG]	2.87
O=C(O[C@@H]1Cc2c(O)cc(O)cc2O[C@@H]1c1cc(O)c(O)c(O)c1)c1cc(O)c(O)c(O)c1 [Example 3, EGCG]	2.98
O=C(O[C@@H]1Cc2c(O)cc(O)cc2O[C@@H]1c1cc(O)c(O)c(O)c1)c1cc(O)c(O)c(O)c1 [Example 4, EGCG]	3.75
O=C(O[C@@H]1Cc2c(O)cc(O)cc2O[C@@H]1c1cc(O)c(O)c(O)c1)c1cc(O)c(O)c(O)c1 [Example 5, EGCG]	3.58
O=C(O[C@@H]1Cc2c(O)cc(O)cc2O[C@@H]1c1cc(O)c(O)c(O)c1)c1cc(O)c(O)c(O)c1 [Example 6, EGCG]	2.32
O=C(O[C@@H]1Cc2c(O)cc(O)cc2O[C@@H]1c1cc(O)c(O)c(O)c1)c1cc(O)c(O)c(O)c1 [Example 7, EGCG]	1.64
O=C(O[C@@H]1Cc2c(O)cc(O)cc2O[C@@H]1c1cc(O)c(O)c(O)c1)c1cc(O)c(O)c(O)c1 [Example 8, EGCG]	0.63

— US20150313824A1, “SKIN CARE COMPOSITION” (Conopco, Inc., d/b/a UNILEVER, priority 2013, published 2015)
